Measured values taken from patent US10202354B2, “Therapeutic compounds and uses thereof” (GENENTECH, INC., priority 2015, dated 2019).

target: Full length KDM2B (Homo sapiens (Human), UniProt Q8NHM5); experiment: KDM2B TR-FRET Assay for Determining Inhibitor IC50; format: biochemical; settings: TR-FRET (HTRF), biotin-H3K36me2 peptide substrate
Description: KDM2B TR-FRET Assay for Determining Inhibitor IC50
The KDM2B TR-FRET Assay described above represents an additional embodiment of the invention.

Sequence of Full length KDM2B (Q8NHM5 whole entry): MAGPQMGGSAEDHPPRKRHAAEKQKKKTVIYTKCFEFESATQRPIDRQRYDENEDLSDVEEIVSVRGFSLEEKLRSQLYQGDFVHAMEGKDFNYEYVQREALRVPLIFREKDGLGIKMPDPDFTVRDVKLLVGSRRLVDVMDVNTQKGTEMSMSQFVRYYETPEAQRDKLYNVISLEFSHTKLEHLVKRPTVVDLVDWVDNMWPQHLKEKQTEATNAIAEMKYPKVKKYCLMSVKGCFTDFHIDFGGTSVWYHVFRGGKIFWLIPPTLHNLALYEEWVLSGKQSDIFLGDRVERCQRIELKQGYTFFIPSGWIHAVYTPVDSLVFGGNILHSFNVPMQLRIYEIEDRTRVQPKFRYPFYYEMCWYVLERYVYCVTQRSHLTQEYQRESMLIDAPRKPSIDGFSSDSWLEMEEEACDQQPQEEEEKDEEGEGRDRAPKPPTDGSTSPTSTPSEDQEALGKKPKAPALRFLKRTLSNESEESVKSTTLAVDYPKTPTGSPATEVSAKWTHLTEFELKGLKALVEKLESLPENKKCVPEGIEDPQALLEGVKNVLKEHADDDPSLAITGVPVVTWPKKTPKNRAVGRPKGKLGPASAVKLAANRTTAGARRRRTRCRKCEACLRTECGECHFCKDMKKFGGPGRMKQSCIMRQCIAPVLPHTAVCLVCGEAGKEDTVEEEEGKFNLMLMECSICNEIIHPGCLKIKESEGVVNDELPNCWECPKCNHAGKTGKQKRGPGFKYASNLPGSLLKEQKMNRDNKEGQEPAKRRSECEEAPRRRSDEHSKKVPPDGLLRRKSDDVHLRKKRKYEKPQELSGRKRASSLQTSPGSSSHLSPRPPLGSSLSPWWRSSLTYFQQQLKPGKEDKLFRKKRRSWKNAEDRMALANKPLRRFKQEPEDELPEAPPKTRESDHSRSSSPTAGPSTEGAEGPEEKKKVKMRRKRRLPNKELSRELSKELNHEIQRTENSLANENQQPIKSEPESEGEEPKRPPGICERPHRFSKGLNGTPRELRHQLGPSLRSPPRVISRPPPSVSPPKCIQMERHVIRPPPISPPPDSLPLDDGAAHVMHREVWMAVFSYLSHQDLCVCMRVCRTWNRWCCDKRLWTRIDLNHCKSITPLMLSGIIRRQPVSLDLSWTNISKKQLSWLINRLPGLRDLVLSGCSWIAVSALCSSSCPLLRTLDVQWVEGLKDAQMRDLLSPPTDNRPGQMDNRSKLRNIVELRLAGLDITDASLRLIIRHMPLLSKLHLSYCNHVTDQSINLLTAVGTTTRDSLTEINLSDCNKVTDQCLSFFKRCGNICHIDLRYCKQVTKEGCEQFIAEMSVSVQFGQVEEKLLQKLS

| Structure (SMILES) | IC50 [nM] |
| --- | --- |
| O=S(=O)(c1ccc(-c2cccc(C(F)(F)F)c2)cc1)N1CCN=C1N1CCN(C2CCC2)CC1 [Example 11, 1-cyclobutyl-4-[1-[4-[3-(trifluoromethyl)phenyl]phenyl]sulfonyl-4,5-dihydroimidazol-2-yl]piperazine] | 0.134 |
| COc1cccc(C(=O)N2CCN=C2N2CCN(C3CCC3)CC2)c1 [Example 90, [2-(4-cyclobutylpiperazin-1-yl)-4,5-dihydroimidazol-1-yl]-(3-methoxyphenyl)methanone] | 2.29 |
| O=S(=O)(c1ccc2cc(Cl)ccc2c1)N1CCN=C1N1CCN(C2CCC2)CC1 [Example 74, 1-[1-[(6-chloro-2-naphthyl)sulfonyl]-4,5-dihydroimidazol-2-yl]-4-cyclobutyl-piperazine] | 0.041 |
| CCN1CCN(C2=NCCN2S(=O)(=O)c2c(Cl)cccc2Cl)CC1 [Example 118, 1-[1-(2,6-dichlorophenyl)sulfonyl-4,5-dihydroimidazol-2-yl]-4-ethyl-piperazine] | 1.02 |
| O=S(=O)(c1ccc(-c2cccc(F)c2)cc1)N1CCN=C1N1CCN(C2CCC2)CC1 [Example 26, 1-cyclobutyl-4-[1-[4-(3-fluorophenyl)phenyl]sulfonyl-4,5-dihydroimidazol-2-yl]piperazine] | 0.138 |
| CCN1CCN(C2=NCCN2S(=O)(=O)c2ccc(C(F)(F)F)cc2)CC1 [Example 107, 1-ethyl-4-[1-[4-(trifluoromethyl)phenyl]sulfonyl-4,5-dihydroimidazol-2-yl]piperazine] | 3.92 |
| CCN1CCN(C2=NCCN2S(=O)(=O)c2ccc(Cl)c(Cl)c2)CC1 [Example 69, 1-[1-(3,4-dichlorophenyl)sulfonyl-4,5-dihydroimidazol-2-yl]-4-ethyl-piperazine] | 11.5 |
| CCN1CCN(C2=NCCN2S(=O)(=O)c2ccc(OC)cc2)CC1 [Example 116, 1-ethyl-4-[1-(4-methoxyphenyl)sulfonyl-4,5-dihydroimidazol-2-yl]piperazine] | 5.45 |
| CCN1CCN(C2=NCCN2S(=O)(=O)c2ccc(Cl)cc2Cl)CC1 [Example 100, 1-[1-(2,4-dichlorophenyl)sulfonyl-4,5-dihydroimidazol-2-yl]-4-ethyl-piperazine] | 2.83 |
| O=S(=O)(c1ccc(-c2ccccn2)cc1)N1CCN=C1N1CCN(C2CCC2)CC1 [Example 6, 1-cyclobutyl-4-[1-[4-(2-pyridyl)phenyl]sulfonyl-4,5-dihydroimidazol-2-yl]piperazine] | 0.102 |
| CC(=O)Nc1ccc(S(=O)(=O)N2CCN=C2N2CCN(C3CCC3)CC2)cc1 [Example 70, N-[4-[[2-(4-cyclobutylpiperazin-1-yl)-4,5-dihydroimidazol-1-yl]sulfonyl]phenyl]acetamide] | 0.094 |
| COc1ccc(C(=O)N2CCN=C2N2CCN(C3CCC3)CC2)cc1 [Example 89, [2-(4-cyclobutylpiperazin-1-yl)-4,5-dihydroimidazol-1-yl]-(4-methoxyphenyl)methanone] | 4.38 |
| CCN1CCN(C2=NCCN2S(=O)(=O)c2ccccc2OC)CC1 [Example 111, 1-ethyl-4-[1-(2-methoxyphenyl)sulfonyl-4,5-dihydroimidazol-2-yl]piperazine] | 13.3 |
| Cn1ccc(-c2ccc(S(=O)(=O)N3CCN=C3N3CCN(C4CCC4)CC3)cc2)n1 [Example 28, 1-cyclobutyl-4-[1-[4-(1-methylpyrazol-3-yl)phenyl]sulfonyl-4,5-dihydroimidazol-2-yl]piperazine] | 0.049 |
| O=S(=O)(c1ccc(Cl)c(Cl)c1)N1CCN=C1N1CCN(C2CCC2)CC1 [Example 67, 1-cyclobutyl-4-[1-(3,4-dichlorophenyl)sulfonyl-4,5-dihydromidazol-2-yl]piperazine] | 0.136 |

Continued by falling IC50, values first:

| IC50 [nM] | Structure (SMILES) |
| --- | --- |
| 8.51 | CCN1CCN(C2=NCCN2S(=O)(=O)c2ccccc2OC(F)(F)F)CC1 [Example 33, 1-ethyl-4-[1-[2-(trifluoromethoxy)phenyl]sulfonyl-4,5-dihydroimidazol-2-yl]piperazine] |
| 4.22 | CC(C)c1ccc(S(=O)(=O)N2CCN=C2N2CCC(N3CCOCC3)CC2)cc1 [Example 49, 4-[1-[1-(4-isopropylphenyl)sulfonyl-4,5-dihydroimidazol-2-yl]-4-piperidyl]morpholine] |
| 3.12 | Cc1cccc(C(=O)N2CCN=C2N2CCN(C3CCC3)CC2)c1 [Example 85, [2-(4-cyclobutylpiperazin-1-yl)-4,5-dihydroimidazol-1-yl]-(m-tolyl)methanone] |
| 2.81 | CCN1CCN(C2=NCCN2S(=O)(=O)c2ccccc2Cl)CC1 [Example 114, 1-[1-(2-chlorophenyl)sulfonyl-4,5-dihydroimidazol-2-yl]-4-ethyl-piperazine] |
| 0.278 | O=S(=O)(c1cccc(C(F)(F)F)c1)N1CCN=C1N1CCN(C2CCC2)CC1 [Example 60, 1-cyclobutyl-4-[1-[3-(trifluoromethyl)phenyl]sulfonyl-4,5-dihydroimidazol-2-yl]-piperazine] |
| 0.275 | O=S(=O)(c1ccc(-c2ccc(Cl)cc2)cc1)N1CCN=C1N1CCN(C2CCC2)CC1 [Example 23, 1-[1-[4-(4-chlorophenyl)phenyl]sulfonyl-4,5-dihydroimidazol-2-yl]-4-cyclobutyl-piperazine] |
| 0.12 | O=S(=O)(c1ccc(-c2cccc(Cl)c2)cc1)N1CCN=C1N1CCN(C2CCC2)CC1 [Example 22, 1-[1-[4-(3-chlorophenyl)phenyl]sulfonyl-4,5-dihydroimidazol-2-yl]-4-cyclobutyl-piperazine] |
| 0.027 | O=S(=O)(c1ccc(-c2cccs2)cc1)N1CCN=C1N1CCN(C2CCC2)CC1 [Example 19, 1-cyclobutyl-4-[1-[4-(2-thienyl)phenyl]sulfonyl-4,5-dihydroimidazol-2-yl]piperazine] |
